Assays:
SOLNI (black nightshade) [1] = test: Pre-emergence herbicidal activity, warm season; assay type: in vivo, Solanum nigrum; settings: GR80 = lowest tested rate (300, 100, 30, 10 g/ha) with 80% or greater inhibition; approx. 14 days after treating; 30/21° C.
How it was run: (§1)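 GR80 values derive from percent inhibition relative to untreated plants, read roughly 14 days after sowing and pre-emergence soil-surface treatment (compound in 50:50 acetone/water; rates typically 10, 30, 100, 300 g/ha). Warm-season weeds grew at 30/21° C day/night, cool-season ones at 18/13° C; an asterisk marks activity without reaching 80% at the highest rate.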

AMARE (redroot pigweed) = test: Pre-emergence herbicidal activity, warm season; assay type: in vivo, Amaranthus retroflexus; settings: GR80 = lowest tested rate (300, 100, 30, 10 g/ha) with 80% or greater inhibition; approx. 14 days after treating; 30/21° C.
How it was run: as §1

POROL (common purslane) = test: Pre-emergence herbicidal activity, warm season; assay type: in vivo, Portulaca oleracea; settings: GR80 = lowest tested rate (300, 100, 30, 10 g/ha) with 80% or greater inhibition; approx. 14 days after treating; 30/21° C.
How it was run: as §1

ECHCG (barnyardgrass) = test: Pre-emergence herbicidal activity, warm season; assay type: in vivo, Echinochloa crus-galli; settings: GR80 = lowest tested rate (300, 100, 30, 10 g/ha) with 80% or greater inhibition; approx. 14 days after treating; 30/21° C.
How it was run: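 Seeds sown in sterilised fertilised topsoil received surface-applied compound in 50:50 acetone/water, typically at 300, 100, 30 and 10 g/ha, then greenhouse-grown at 30/21° C (warm-season species) or 18/13° C (cool-season species). Percent inhibition versus untreated plants was scored at about 14 days, giving GR80; an asterisk marks activity short of 80% at the top rate.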

[2] = tested on: GALAP (catchweed bedstraw); test: Pre-emergence herbicidal activity, cool season; assay type: in vivo, Galium aparine; settings: lowest tested rate with 80% or greater inhibition; rates 300, 100, 30, 10 g/ha; about 14 days
How it was run: as §1

SOLNI (black nightshade) [3] = test: Pre-plant incorporated (PPI) herbicidal activity, warm season; assay type: in vivo, Solanum nigrum; settings: PPI application
Protocol: (§2) In another set of tests, the pre-plant incorporated (PPI) activity of compounds of this invention was evaluated on the same species as for the pre-emergence tests described above. In the PPI tests the following procedure, designed to simulate PPI application, was used.
(§3) A pre-prepared topsoil mixture (described above) was placed in a pot and compacted to a depth of 1.0 to 1.25 cm from the top of the pot. Seeds of each of several monocotyledonous and dicotyledonous annual plant species were placed on top of the soil. A sufficient quantity of soil to cover the seeds and level fill the pot was weighed into an open container. A known amount of the test compound was dissolved or suspended in an organic solvent and applied by spraying to this cover soil. The cover soil was thoroughly mixed to distribute the test compound throughout the cover soil, and was then applied as a cover layer over the seeds. Untreated soil was used as a cover layer for control pots. After treatment the plants were placed in a greenhouse where they received 0.64 cm of overhead irrigation. All subsequent watering consisted of a light overhead mist and/or subirrigation as needed for germination and growth. Tables 9 and 10 below relate to warm season plant species which were placed after pre-emergence treatment in a greenhouse with a 30/21° C. day/night temperature regime. Tables 11 and 12 below relates to cool season plant species placed after pre-emergence treatment in a greenhouse or growth chamber with an 18/13° C. day/night temperature regime. Only the compounds of Examples 1, 6, 8, 11, 13 and 15-20 were included in PPI tests.
(§4) Approximately 14 days after planting and treating, the plants were observed and herbicidal efficacy recorded as percent inhibition by comparison with untreated plants.

[4] = tested on: CHEAL (common lambsquarters); test: as above; assay type: in vivo, Chenopodium album; settings: PPI application
Protocol: as §2, §3, §4

[5] = tested on: PANMI (wild proso millet); test: as above; assay type: in vivo, Panicum miliaceum; settings: PPI application
Protocol: as §2, §3, §4

oilseed rape (BRSNS) = test: Selectivity test, PPI, cool season crop; assay type: in vivo, Brassica napus; settings: PPI application
Protocol: as §3, §4
Additional pre-emergence and PPI tests were conducted by the procedures described above, on warm and cool season weed species in the presence of crop species, to assess herbicidal selectivity. Crop species included in warm season tests were corn (Zea mays, ZEAMX), rice (Oryza sativa, ORYSA) and soybean (Glycine max, GLYMX). Crop species included in cool season tests were wheat (Triticum aestivum, TRZAW), barley (Hordeunm vulgare, HORVX) and oilseed rape (Brassica napus, BRSNS).
Tables 15 and 16 relate to pre-emergence and PPI tests respectively on warm season species. Table 17 relates to pre-emergence tests on cool season species.

AVEFA (wild oat) = test: Pre-emergence herbicidal activity, cool season; assay type: in vivo, Avena fatua; settings: GR80 = lowest tested rate (300, 100, 30, 10 g/ha) with 80% or greater inhibition; approx. 14 days after treating; 18/13° C.
How it was run: as §1

Row | Compound | Pre-emergence activity (GR80) SOLNI (SOLNI (black nightshade) [1]) [g/ha] | Pre-emergence activity (GR80) AMARE (AMARE (redroot pigweed)) [g/ha] | Pre-emergence activity (GR80) POROL (POROL (common purslane)) [g/ha] | Pre-emergence activity (GR80) ECHCG (ECHCG (barnyardgrass)) [g/ha] | Pre-emergence activity GR80, GALAP [2] | Percent inhibition SOLNI (SOLNI (black nightshade) [3]; 30 g/ha) [%] | Percent inhibition SOLNI (SOLNI (black nightshade) [3]; 100 g/ha) [%] | Percent inhibition SOLNI (SOLNI (black nightshade) [3]; 300 g/ha) [%] | Percent inhibition SOLNI (SOLNI (black nightshade) [3]; 900 g/ha) [%] | Percent inhibition CHEAL ([4]; 30 g/ha) [%] | Percent inhibition CHEAL ([4]; 100 g/ha) [%] | Percent inhibition CHEAL ([4]; 300 g/ha) [%] | Percent inhibition CHEAL ([4]; 900 g/ha) [%] | Percent inhibition PANMI ([5]; 30 g/ha) [%] | Percent inhibition PANMI ([5]; 100 g/ha) [%] | Percent inhibition PANMI ([5]; 300 g/ha) [%] | Percent inhibition BRSNS (oilseed rape (BRSNS); 30 g/ha) [%] | Percent inhibition BRSNS (oilseed rape (BRSNS); 100 g/ha) [%] | Percent inhibition BRSNS (oilseed rape (BRSNS); 300 g/ha) [%] | Percent inhibition BRSNS (oilseed rape (BRSNS); 900 g/ha) [%] | further results
1 | CCN(CC)C(=O)n1cnc(S(=O)(=O)C(F)(F)F)n1 [Example 2] | 300 | 30 | 100 | 30 | 100 g/ha | 30 | 90 | 100 | 90 | 90 | 95 | 100 | 100 | 20 | 80 | 100 | 0 | 80 | 100 | 100 | 
2 | CCN(CC)C(=O)n1cnc(S(=O)(=O)C(F)(F)Cl)n1 [Example 3] | 100 | 100 | 100 | 30 | 100 g/ha | 70 | 100 | 100 | 100 | 80 | 99 | 100 | 100 | 100 | 100 | 100 | 100 | 100 | 100 | 100 | Percent inhibition PANMI ([5]; 900 g/ha): 100%
3 | CCN(CC)C(=O)n1cnc(S(=O)(=O)C(F)(F)C(F)(F)Br)n1 [Example 4] | 300 | 100 | 100 | 100 | 100 g/ha | 60 | 95 | 100 | 100 | 60 | 100 | 100 | 100 | 0 | 100 | 100 | 80 | 100 | 100 | 100 | Pre-emergence activity (GR80) AVEFA (AVEFA (wild oat)): 30 g/ha; Percent inhibition PANMI ([5]; 900 g/ha): 100%
4 | CCN(CC)C(=O)n1cnc(S(=O)(=O)C(F)(F)SCc2ccccc2)n1 [Example 10] | 300 | 100 |  | 300 | [empty] | 60 | 100 | 80 | 100 | 60 | 60 | 100 | 100 | 0 | 80 | 99 | 0 | 0 | 50 | 95 | Percent inhibition SOLNI (SOLNI (black nightshade) [3]; 10 g/ha): 20%; Percent inhibition CHEAL ([4]; 10 g/ha): 30%; Percent inhibition PANMI ([5]; 10 g/ha): 0%; Percent inhibition PANMI ([5]; 900 g/ha): 100%; Percent inhibition BRSNS (oilseed rape (BRSNS); 10 g/ha): 0%
5 | CCN(CC)C(=O)n1cnc(S(=O)(=O)C(F)(F)C(F)(F)SC)n1 [Example 14] | 300 | 300 | 300 | 300 | 30 g/ha |  |  |  |  |  |  |  |  |  |  |  |  |  |  |  | Pre-emergence activity (GR80) AVEFA (AVEFA (wild oat)): 300 g/ha

From US6461997B1, “Triazole sulfones having herbicidal activity” (Monsanto Technology LLC, priority 1999, dated 2002)
